Data reported in US8420657B2 (Novartis AG, priority 2008, dated 2013).

Legend:
GST-JAK2(808-1132) = target: T1, GST-JAK2(808-1132) (Homo sapiens, UniProt O60674); test: JAK2 kinase assay (Caliper mobility shift, LabChip 3000); assay type: biochemical
T1 construct: GST-JAK2(808-1132); purchased Invitrogen (Carlsbad, USA) #4288
Summary of the method: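 Eight-point compound series (final 10–0.003 μM) tested on purchased GST-JAK2 kinase domain (808-1132). Peptide FITC-JAK3tide plus ATP reacted 60 min, 30 °C, then quenched with EDTA; turnover from charge-based separation of substrate and product.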

[1] = system: JAK1/JAK2-dependent nuclear translocation of STAT1-GFP in HT1080 fibrosarcoma cells; test: STAT1 nuclear translocation assay (Cellomics), IFN-γ stimulated HT1080 STAT1-GFP cells; assay type: cell-based; conditions: Homo sapiens, HT-1080, STAT1 translocation pathway
Summary of the method: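 IC50 derived from percent nuclear STAT1-GFP translocation, computed from nuclear minus cytoplasmic GFP intensity against untreated baseline and DMSO-stimulated control. Stable HT1080 STAT1-GFP cells received compound (0.003–10 μM, 0.1% DMSO) 30 min ahead of a 2 h 100 ng/ml IFN-γ stimulus, then fixation and Hoechst nuclear masking.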

T1 sequence (O60674 808-1132): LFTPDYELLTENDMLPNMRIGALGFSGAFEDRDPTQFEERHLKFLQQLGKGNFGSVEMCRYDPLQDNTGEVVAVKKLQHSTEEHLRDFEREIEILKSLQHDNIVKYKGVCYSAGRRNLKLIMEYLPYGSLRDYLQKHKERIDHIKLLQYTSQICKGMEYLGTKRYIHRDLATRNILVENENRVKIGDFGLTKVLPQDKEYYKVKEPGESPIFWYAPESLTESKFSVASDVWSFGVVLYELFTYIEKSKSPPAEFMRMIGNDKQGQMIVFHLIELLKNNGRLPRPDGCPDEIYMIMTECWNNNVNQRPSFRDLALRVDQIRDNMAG

| IC50 (GST-JAK2(808-1132)) [µM] | IC50 [1] [µM] | SMILES |
| --- | --- | --- |
| 0.028 | 4 | O=C(c1c(F)cc(-n2ccc3cnc(Nc4nccs4)nc32)cc1F)N1CCOCC1 [Example 246, {2,6-Difluoro-4-[2-(thiazol-2-ylamino)-pyrrolo[2,3-d]pyrimidin-7-yl]-phenyl}-morpholin-4-yl-methanone] |
| < 0.003 | 0.22 | CC(C)Oc1ccc(Nc2ncc3ccn(-c4ccc(C5(C(=O)N6CCN(C)CC6)CC5)cc4)c3n2)cc1 [Example 103, (1-{4-[2-(4-Isopropoxy-phenylamino)-pyrrolo[2,3-d]pyrimidin-7-yl]-phenyl}-cyclopropyl)-(4-methyl-piperazin-1-yl)-methanone] |
| 0.0089 | 3.27 | Cc1cc(Nc2ncc3ccn(-c4ccc(C(=O)N5CCN(C)CC5)c(F)c4)c3n2)ccc1F [Example 88, {2-Fluoro-4-[2-(4-fluoro-3-methyl-phenylamino)-pyrrolo[2,3-d]pyrimidin-7-yl]-phenyl}-(4-methyl-piperazin-1-yl)-methanone] |
| 0.0059 | 0.202 | CC(C)Oc1ccc(Nc2ncc3ccn(-c4ccc(C(C)O)cc4)c3n2)cc1 (stereo not drawn) [Example 114, 1-{4-[2-(4-Isopropoxy-phenylamino)-pyrrolo[2,3-d]pyrimidin-7-yl]-phenyl}-ethanol] |
| 0.0078 | 0.21 | O=C(c1c(F)cc(-n2ccc3cnc(Nc4ccc(N5CCNC6(CC6)C5)nc4)nc32)cc1F)N1CCOCC1 [Example 268, (4-{2-[6-(4,7-Diaza-spiro[2.5]oct-7-yl)-pyridin-3-ylamino]-pyrrolo[2,3-d]pyrimidin-7-yl}-2,6-difluoro-phenyl)-morpholin-4-yl-methanone] |
| 0.032 | 4.67 | CN1CCN(C(=O)c2ccc(-n3ccc4cnc(Nc5ccc(F)cc5)nc43)cc2)CC1 [Example 56, {4-[2-(4-Fluoro-phenylamino)-pyrrolo[2,3-d]pyrimidin-7-yl]-phenyl}-(4-methyl-piperazin-1-yl)-methanone] |
| < 0.003 | 0.073 | CC(C)Oc1ccc(Nc2ncc3ccn(-c4ccc(CN5CCS(=O)(=O)CC5)c(F)c4)c3n2)cc1 [Example 112, {7-[4-(1,1-Dioxido-thiomorpholin-4-ylmethyl)-3-fluoro-phenyl]-7H-pyrrolo[2,3-d]pyrimidin-2-yl}-(4-isopropoxy-phenyl)-amine] |
| 0.0073 | 1.55 | COCc1ccc(Nc2ncc3ccn(-c4ccc(CN5CCOCC5)c(Cl)c4)c3n2)cc1 [Example 176, [7-(3-Chloro-4-morpholin-4-yl methyl-phenyl)-7H-pyrrolo[2,3-d]pyrimidin-2-yl]-(4-methoxymethyl-phenyl)-amine] |
| 0.0105 | 0.666 | CC(C)Oc1ccc(Nc2ncc3ccn(-c4ccc(C(=O)N5CCOCC5)c(F)c4)c3n2)cn1 [Example 226, {2-Fluoro-4-[2-(6-isopropoxy-pyridin-3-ylamino)-pyrrolo[2,3-d]pyrimidin-7-yl]-phenyl}-morpholin-4-yl-methanone] |

| SMILES | IC50 (GST-JAK2(808-1132)) [µM] | IC50 [1] [µM] |
| --- | --- | --- |
| COc1cc(Nc2ncc3ccn(-c4ccc(CC(=O)N5CCN(C)CC5)cc4)c3n2)ccc1F [Example 150, 2-{4-[2-(4-Fluoro-3-methoxy-phenylamino)-pyrrolo[2,3-d]pyrimidin-7-yl]-phenyl}-1-(4-methyl-piperazin-1-yl)-ethanone] | 0.0045 | 0.0645 |
| Cc1ccc(Nc2ncc3ccn(-c4ccc(CC(=O)N5CCN(C)CC5)cc4)c3n2)cc1C [Example 148, 2-{4-[2-(3,4-Dimethyl-phenylamino)-pyrrolo[2,3-d]pyrimidin-7-yl]-phenyl}-1-(4-methyl-piperazin-1-yl)-ethanone] | 0.0079 | 0.047 |
| COc1cc(Nc2ncc3cc(C)n(-c4ccc(CC(=O)N5CCN(C)CC5)cc4)c3n2)ccc1F [Example 162, 2-{4-[2-(4-Fluoro-3-methoxy-phenylamino)-6-methyl-pyrrolo[2,3-d]pyrimidin-7-yl]-phenyl}-1-(4-methyl-piperazin-1-yl)-ethanone] | 0.305 | 9.7 |
